Experimental data as given in patent publication US20230044787A1, “TRICYCLE DIHYDROIMIDAZOPYRIMIDONE DERIVATIVE, PREPARATION METHOD THEREOF, PHARMACEUTICAL COMPOSITION AND USE THEREOF” (priority 2019, published 2023).

Target: T1, Lp-PLA2 (Homo sapiens, UniProt Q13093)
T1 construct: aliquoted and thawed 40 μL of pooled human plasma was previously added; from tissue; host or cells: pooled human plasma
T1 sequence (Q13093 22-441): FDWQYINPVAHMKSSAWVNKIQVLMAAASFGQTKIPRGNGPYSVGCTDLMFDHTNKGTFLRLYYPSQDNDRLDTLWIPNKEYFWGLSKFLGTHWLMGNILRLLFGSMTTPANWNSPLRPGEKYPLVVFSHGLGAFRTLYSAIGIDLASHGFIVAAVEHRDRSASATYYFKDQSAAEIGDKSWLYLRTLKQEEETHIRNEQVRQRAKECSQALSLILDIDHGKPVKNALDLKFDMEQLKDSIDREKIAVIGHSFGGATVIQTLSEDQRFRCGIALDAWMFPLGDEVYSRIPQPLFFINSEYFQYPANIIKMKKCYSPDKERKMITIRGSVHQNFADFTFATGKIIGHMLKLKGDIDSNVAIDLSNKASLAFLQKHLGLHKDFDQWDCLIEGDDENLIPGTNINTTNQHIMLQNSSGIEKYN
Test: Lipoprotein-associated phospholipase A2 (Lp-PLA2) human plasma assay (Thio-PAF assay)
Format: biochemical
Conditions: Lp-PLA2 human plasma assay (Thio-PAF), pooled human plasma, 30-min pre-incubation at room temperature

Question: With NC12CN3c4cc(OCc5ccc(Oc6ccnc(C(F)(F)F)c6)c(F)c5)nc(=O)n4CC3(C1)C2 [Example 202, 7-Amino-3-((3-fluoro-4-((2-(trifluoromethyl)pyridin-4-yl)oxy)benzyl)oxy)-7,8-dihydro-1H,6H,9H-7,8a-methanopyrrolo[1′,2′:3,4]imidazo[1,2-c]pyrimidin-1-one] as the molecule, how does the IC50 read?
Answer: 1.9 nM
